From patent US9155752B2, “Liver function-improving agent” (UENO FINE CHEMICALS INDUSTRY, LTD., priority 2012, dated 2015) come the findings set out here.

SMILES strings stand for the structures.

In this test the test system is NASH mice. The test is described as follows: Oil Red staining of liver, fat accumulation area % (Test Example 3). It counts as in vivo. To be noted: for Fat accumulation area %, Significant difference: Student-t, 5% level. An excerpt: A solid diet CE-2 (lipid 4.6% by weight, manufactured by CLEA Japan, Inc.) was used as a normal diet. A solid diet, High Fat Diet 32 (lipid 32.0% by weight, sucrose 6.75% by weight, manufactured by CLEA Japan, Inc.), was used as a sucrose-containing high fat diet. As a maltitol-containing high-fat diet, a special diet (lipid 32.0% by weight, maltitol 6.08% by weight; manufactured by CLEA Japan, Inc.) obtained by replacing the total amount (6.75% by weight) of sucrose in a solid diet, High Fat Diet 32, with powdered maltitol (Whole Crystalline Maltitol Ueno 60M (purity of maltitol: 90%), manufactured by Ueno Fine Chemicals Industry Ltd.) was used. Sodium hypochlorite (PURELOX-S, manufactured by OYALOX Co., Ltd.) was added to pure water prepared by Elix-UV pure water producing apparatus, to a final concentration of 0.00009%, so that pure water for use in the test was obtained. An aqueous maltitol solution was prepared by dissolving powdered maltitol (Whole Crystalline Maltitol Ueno 60M (purity of maltitol: 90%), manufactured by Ueno Fine Chemicals Industry Ltd.) in pure water to a concentration of 1.8% (weight/volume). The purity of maltitol in the aqueous maltitol solution was 1.62%. Twenty-one female SPF mice (C57BL/6J, produced by CLEA Japan, Inc.) on day 14 of pregnancy were purchased and acclimation was performed. All animals were allowed to make a natural birth and a born male was used to produce a model. In addition, the weaning was at 4 weeks after birth. Streptozotocin (Sigma-Aldrich Japan K.K.) was adjusted to a concentration of 10 mg/mL with a physiological saline solution (manufactured by Otsuka Pharmaceutical Factory, Inc.) and the solution was subcutaneously administered once to the back of 2-day-old male mice at a dose of 20 μL/mouse (200 μg/mouse). Afterwards, the mother animal took care of the baby until weaning. The weaning was on day 28±2 after birth. After the weaning, a normal diet was supplied ad libitum to animals receiving no streptozotocin (normal mice (group S1 and group 1)), and a sucrose-containing high fat diet was supplied ad libitum to animals receiving streptozotocin (NASH mice (group S2, group 2, group 3, and group 4). A normal diet was supplied ad libitum to normal mice (group 1). With respect to NASH mice, a sucrose-containing high fat diet was supplied ad libitum to the sucrose group (group 2), and a maltitol-containing high fat diet was supplied ad libitum to the maltitol-low dose group (group 3) and the maltitol-high dose group (group 4). An aqueous maltitol solution was supplied ad libitum only to the maltitol-high dose group (group 4) of 5 to 8 weeks of age, and pure water was supplied ad libitum to the groups other than group 4 of 5 to 8 weeks of age. Six male animals per group were assigned to groups S1 and S2, reared up to 5 weeks of age, and then necropsied. Eight male animals per group were assigned to groups 1, 2, 3 and 4, reared up to 8 weeks of age, and then necropsied. At scheduled necropsy of the animals of 5 or 8 weeks of age, all individuals were anesthetized with diethyl ether (manufactured by Sigma-Aldrich Japan K.K.) and a needle through which heparin sodium (Novo Heparin Injection 1000, manufactured by Mochida Pharmaceutical Co., Ltd.) had been passed was punctured to the heart to aspirate the whole blood, leading to euthanasia, followed by harvest of the organ. With respect to animals of 5 or 8 weeks of age at scheduled necropsy, the left outer lobe of the liver was immersed in a neutral formalin solution (manufactured by Wako Pure Chemical Industries, Ltd.) for fixation at room temperature for 24 hours, subjected to sucrose substitution, embedded in a tray for cryosection (CRYO DISH manufactured by Shoei Works Co., Ltd.) filled with O.C.T. compound (manufactured by Sakura Finetek Japan Co., Ltd.), immediately frozen with liquid nitrogen, and preserved at −80° C. for oil red staining. […]

Take `OC[C@@H](O)[C@@H](O[C@H]1O[C@H](CO)[C@@H](O)[C@H](O)[C@H]1O)[C@H](O)[C@@H](O)CO` [maltitol]: the “Fat accumulation area %, Significant difference” value runs as follows: (Group 3 (low-dose maltitol) at 8 weeks vs group S2 at 5 weeks of age) “significantly low and Yes”; (Group 4 (high-dose maltitol) at 8 weeks vs group S2 at 5 weeks of age) “significantly low and Yes”. Further, the “Fat accumulation area % (Oil Red staining), mean ± standard deviation” value by setting is: (Group 3, low-dose maltitol: HFD32-M (maltitol 6.08%) + pure water from 5 to 8 weeks of age) 32.7 ± 7.6%; (Group 4, high-dose maltitol: HFD32-M (maltitol 6.08%) + aqueous maltitol solution 1.62% from 5 to 8 weeks of age) 28.6 ± 5.5%.

As for `OC[C@H]1O[C@@](CO)(O[C@H]2O[C@H](CO)[C@@H](O)[C@H](O)[C@H]2O)[C@@H](O)[C@@H]1O` [sucrose, reference compound], the “Fat accumulation area %, Significant difference” value (Group 2 (sucrose) at 8 weeks vs group S2 at 5 weeks of age) is “a significant difference was not observed and No”. Moreover, the “Fat accumulation area % (Oil Red staining), mean ± standard deviation” value (Group 2, sucrose group: HFD32 (sucrose 6.75%) + pure water, eight weeks of age) is given as 34.7 ± 8.4%.
